According to patent US9597407B2, “Targeted antimicrobial moieties” (C3 Jian, Inc., priority 2009, dated 2017):
Entries after “also recorded” stand apart in the source; their conditions may differ. Ends that are not written are not given here.

Key:
bacteria = test: Binding of targeting peptides to microorganisms (Table 3); conditions: preferably 1x PBS; for Target(s) (microorganisms bound by the targeting peptide) / Target(s) (microorganism bound by the targeting peptide): peptide binding in aqueous buffers that varied depending on peptide solubility
microorganisms [1] = test: Morphology, biofilm and growth disruption by peptides (Table 5); assay type: cell-based; parameters: key: A: Peptide aggregates; B: Less hyphal formation; Clumps; Diffuse clumps and small polyps; F: Diffuse growth; H: Thin; I: Growth inhibition; Microcolony formation; Rippled; Small polyps; Thick; W: Halo formation on top, microlonies on bottom
From the text: In certain embodiments peptides that induce alterations in phenotype or other biological activities can also be used as antimicrobial effector moieties.

microorganisms [2] = test: Peptide activities: binding, antimicrobial, growth or phenotype altering (Table 8)
From the text: In certain embodiments, peptides described herein can have multiple activities. Thus for example, a peptide can have both binding/targeting activity and antimicrobial activity. Such peptides can be used, e.g., in a chimeric construct, for any or all of these properties. Thus, for example, a peptide designated “B” in Table 8 can be used as a targeting peptide. If it is also designated G or M it can also be used for antimicrobial activity.

[3] = microorganism bound by the targeting peptide, binding in aqueous buffers chosen by peptide solubility

PF-517 (VKPTMTASLISTVC; Peptide with targeting and/or antimicrobial activity)
Target(s) (microorganisms bound by the targeting peptide) (bacteria): C. jejuni | Organism, effect (morphology, biofilm and growth disruption) (microorganisms [1]; S. pneumoniae): S. pneumoniae (M) | Activities (microorganisms [2]): G B

PF-389 (GLQFKEIAEEFHITTTALQQWHKDNGYPIYNKNNRK; Peptide with targeting and/or antimicrobial activity)
Target(s) (microorganisms bound by the targeting peptide) (bacteria): S. epidermidis and C. albicans and MRSA and S. pneumoniae and E. faecalis and C. jeikeium | Organism, effect (microorganisms [1]; C. jejuni): C. jejuni (R) | Organism, effect (microorganisms [1]; E. faecalis): E. faecalis (R) | Organism, effect (microorganisms [1]; MRSA): MRSA (C) | Organism, effect (microorganisms [1]; S. epidermidis): S. epidermidis (R) | Organism, effect (microorganisms [1]; S. pneumoniae): S. pneumoniae (D) | Activities (microorganisms [2]): G B

PF-363 (SMLSVTVMCLMHASVAANQAMEKKV; Peptide with targeting and/or antimicrobial activity)
Target(s) (bacteria; [3]): B. subtilis; also recorded: E. coli; also recorded: P. aeruginosa; also recorded: C. albicans; also recorded: S. pneumoniae; also recorded: E. faecalis | Organism, effect (microorganisms [1]; C. jejuni): C. jejuni (D) | Organism, effect (microorganisms [1]; E. coli): E. coli (C) | Organism, effect (microorganisms [1]; E. faecalis): E. faecalis (D) | Organism, effect (microorganisms [1]; MRSA): MRSA (H) | Organism, effect (microorganisms [1]; S. epidermidis): S. epidermidis (S) | Organism, effect (microorganisms [1]; S. pneumoniae): S. pneumoniae (R) | Activities (microorganisms [2]): G B

PF-452 (MNNWIKVAQISVTVINEVIDIMKEKQNGGK; Peptide with targeting and/or antimicrobial activity)
Target(s) (microorganisms bound by the targeting peptide) (bacteria): M. luteus; also recorded: P. aeruginosa; also recorded: C. albicans; also recorded: S. pneumoniae; also recorded: E. faecalis; also recorded: C. jeikeium; also recorded: M. smegmatis | Organism, effect (morphology, biofilm and growth disruption) (microorganisms [1]; E. coli): E. coli (C) | Organism, effect (morphology, biofilm and growth disruption) (microorganisms [1]; E. faecalis): E. faecalis (C) | Organism, effect (morphology, biofilm and growth disruption) (microorganisms [1]; MRSA): MRSA (C) | Organism, effect (morphology, biofilm and growth disruption) (microorganisms [1]; S. epidermidis): S. epidermidis (C) | Organism, effect (morphology, biofilm and growth disruption) (microorganisms [1]; S. pneumoniae): S. pneumoniae (R) | Activities (microorganisms [2]): G B

PF-762 (chain 1 PAPAPSAPAPAPEQPEQPA; chain 2 PAPAPSAPAPAPEQPEQPA; Peptide with targeting and/or antimicrobial activity)
Target(s) (microorganism bound by the targeting peptide) (bacteria): M. luteus; also recorded: C. albicans | Organism, effect (morphology, biofilm and growth disruption) (microorganisms [1]; S. pneumoniae): S. pneumoniae (H) | Activities (microorganisms [2]): G B

PF-554 (AKNFLTRTAEEIGEQAVREGNINGP; Peptide with targeting and/or antimicrobial activity)
Target(s) (microorganisms bound by the targeting peptide) (bacteria): S. pneumoniae | Organism, effect (morphology, biofilm and growth disruption) (microorganisms [1]; B. subtilis): B. subtilis (D) | Activities (microorganisms [2]): G B

PF-552 (ELDKADAALGPAKNLAPLDVINRS; Peptide with targeting and/or antimicrobial activity)
Target(s) (microorganisms bound by the targeting peptide) (bacteria): S. pneumoniae | Organism, effect (morphology, biofilm and growth disruption) (microorganisms [1]; B. subtilis): B. subtilis (D) | Activities (microorganisms [2]): G B

PF-369 (MSEAVNLLRGARYSQRYAKNQVPYEVIIEK; Peptide with targeting and/or antimicrobial activity)
Target(s) (bacteria; [3]): B. subtilis; also recorded: B. fragilis; also recorded: E. coli; also recorded: P. aeruginosa; also recorded: C. albicans; also recorded: S. pneumoniae; also recorded: C. jeikeium; also recorded: C. jejuni | Organism, effect (microorganisms [1]; E. coli): E. coli (R) | Organism, effect (microorganisms [1]; E. faecalis): E. faecalis (C) | Organism, effect (microorganisms [1]; MRSA): MRSA (H) | Organism, effect (microorganisms [1]; S. epidermidis): S. epidermidis (S) | Activities (microorganisms [2]): G B

PF-558 (ADAPPPLIVRYS; Peptide with targeting and/or antimicrobial activity)
Target(s) (microorganisms bound by the targeting peptide) (bacteria): S. epidermidis; also recorded: E. coli; also recorded: C. albicans; also recorded: C. jeikeium; also recorded: C. jejuni | Organism, effect (morphology, biofilm and growth disruption) (microorganisms [1]; B. subtilis): B. subtilis (D) | Organism, effect (morphology, biofilm and growth disruption) (microorganisms [1]; C. jejuni): C. jejuni (H) | Organism, effect (morphology, biofilm and growth disruption) (microorganisms [1]; MRSA): MRSA (C) | Organism, effect (morphology, biofilm and growth disruption) (microorganisms [1]; S. epidermidis): S. epidermidis (M) | Organism, effect (morphology, biofilm and growth disruption) (microorganisms [1]; S. pneumoniae): S. pneumoniae (R) | Activities (microorganisms [2]): G B

PF-462 (KNKTDTL; Peptide with targeting and/or antimicrobial activity)
Target(s) (microorganisms bound by the targeting peptide) (bacteria): E. faecalis; also recorded: C. jeikeium | Organism, effect (morphology, biofilm and growth disruption) (microorganisms [1]; S. pneumoniae): S. pneumoniae (H) | Activities (microorganisms [2]): G B

PF-569 (KSKISEYTEKEFLEFVEDIYTNNK; Peptide with targeting and/or antimicrobial activity)
Target(s) (microorganisms bound by the targeting peptide) (bacteria): M. luteus; also recorded: P. mirabilis; also recorded: S. pneumoniae; also recorded: E. faecalis; also recorded: C. jeikeium | Organism, effect (morphology, biofilm and growth disruption) (microorganisms [1]; B. subtilis): B. subtilis (D) | Activities (microorganisms [2]): G B

PF-528 (LVDVVVLIRRHLPKSCS-NH2)
Target(s) (microorganisms bound by the targeting peptide) (bacteria): S. epidermidis and P. aeruginosa and C. albicans and MRSA and S. pneumoniae and E. faecalis | Organism, effect (morphology, biofilm and growth disruption) (microorganisms [1]; C. albicans): C. albicans (C) | Organism, effect (morphology, biofilm and growth disruption) (microorganisms [1]; E. coli): E. coli (H) | Organism, effect (morphology, biofilm and growth disruption) (microorganisms [1]; MRSA): MRSA (H) | Organism, effect (morphology, biofilm and growth disruption) (microorganisms [1]; S. epidermidis): S. epidermidis (H) | Organism, effect (morphology, biofilm and growth disruption) (microorganisms [1]; S. pneumoniae): S. pneumoniae (R) | Activities (microorganisms [2]): G B

PF-061 (GYNSYKAVQDVKTHSEEQRVTAKK; Peptide with targeting and/or antimicrobial activity)
Target(s) (bacteria; microorganism the targeting peptide binds, binding in aqueous buffers that varied with peptide solubility): S. epidermidis; also recorded: S. pneumoniae | Organism, effect (microorganisms [1]; B. subtilis): B. subtilis (R) | Organism, effect (microorganisms [1]; C. jejuni): C. jejuni (R) | Organism, effect (microorganisms [1]; S. epidermidis): S. epidermidis (R) | Organism, effect (microorganisms [1]; S. pneumoniae): S. pneumoniae (R) | Activities (microorganisms [2]): G B

PF-614 (GLDIYA; Peptide with targeting and/or antimicrobial activity)
Target(s) (microorganism bound by the targeting peptide) (bacteria): S. epidermidis; also recorded: E. coli; also recorded: C. jeikeium | Organism, effect (morphology, biofilm and growth disruption) (microorganisms [1]; C. jejuni): C. jejuni (R) | Organism, effect (morphology, biofilm and growth disruption) (microorganisms [1]; E. faecalis): E. faecalis (A) | Organism, effect (morphology, biofilm and growth disruption) (microorganisms [1]; S. epidermidis): S. epidermidis (M) | Organism, effect (morphology, biofilm and growth disruption) (microorganisms [1]; S. pneumoniae): S. pneumoniae (R) | Activities (microorganisms [2]): G B

PF-515 (DKSTQDKDIKQAKLLAQELGL-NH2)
Target(s) (microorganisms bound by the targeting peptide) (bacteria): S. epidermidis; also recorded: C. albicans; also recorded: S. pneumoniae; also recorded: C. jeikeium | Organism, effect (morphology, biofilm and growth disruption) (microorganisms [1]; S. pneumoniae): S. pneumoniae (H) | Activities (microorganisms [2]): G B

PF-393 (DLVQSILSEFKKSG; Peptide with targeting and/or antimicrobial activity)
Target(s) (microorganisms bound by the targeting peptide) (bacteria): S. epidermidis and E. coli and C. albicans and MRSA and S. pneumoniae and C. jejuni | Organism, effect (microorganisms [1]; C. jejuni): C. jejuni (R) | Organism, effect (microorganisms [1]; E. faecalis): E. faecalis (A) | Organism, effect (microorganisms [1]; MRSA): MRSA (C) | Organism, effect (microorganisms [1]; S. epidermidis): S. epidermidis (R) | Organism, effect (microorganisms [1]; S. pneumoniae): S. pneumoniae (R) | Activities (microorganisms [2]): G B

PF-737 (chain 1 KSSGSSASASSTAGGSSSK; chain 2 KSSGSSASASSTAGGSSSK; Peptide with targeting and/or antimicrobial activity)
Target(s) (microorganism bound by the targeting peptide) (bacteria): S. epidermidis; also recorded: S. pneumoniae | Organism, effect (morphology, biofilm and growth disruption) (microorganisms [1]; S. pneumoniae): S. pneumoniae (D) | Activities (microorganisms [2]): G B
